Test in all cases: two-electrode voltage clamp, Xenopus oocytes
(In two-electrode clamp one electrode senses voltage and the other passes current.)

The test system of test [1] is T1, OR20.
T1 construct: full-length cDNA from adult antennae in pT7Ts; co-expressed with ORCO in Xenopus oocytes; with Odorant receptor coreceptor
Type of test: cell-based, Cimex lectularius. As to conditions: co-expressed with ORCO; pH 7.6 Ringer's solution; −80 mV; agonist current.

Test [2] relates to T2, OR21.
T2 construct: full-length cDNA from adult antennae in pT7Ts; co-expressed with ORCO in Xenopus oocytes; with Odorant receptor coreceptor
Type of test: cell-based, Cimex lectularius. As to conditions: co-expressed with ORCO; pH 7.6 Ringer's solution; −80 mV; agonist current.

For test [3], the system named is T3, OR19.
T3 construct: full-length cDNA from adult antennae in pT7Ts; co-expressed with ORCO in Xenopus oocytes; with Odorant receptor coreceptor
Type of test: cell-based, Cimex lectularius. To be noted: co-expressed with ORCO; pH 7.6 Ringer's solution; −80 mV; agonist current.

Test [4] relates to T4, OR46.
T4 construct: full-length cDNA from adult antennae in pT7Ts; co-expressed with ORCO in Xenopus oocytes; with Odorant receptor coreceptor
Type of test: cell-based, Cimex lectularius. To be noted: co-expressed with ORCO; pH 7.6 Ringer's solution; −80 mV; agonist current.

In test [5] the target is T5, OR37 (Cimex lectularius, UniProt A0A8I6S1W4).
T5 construct: gene 106669445; full-length cDNA from adult antennae in pT7Ts; co-expressed with ORCO in Xenopus oocytes; with Odorant receptor coreceptor
T5 sequence (A0A8I6S1W4 1-374): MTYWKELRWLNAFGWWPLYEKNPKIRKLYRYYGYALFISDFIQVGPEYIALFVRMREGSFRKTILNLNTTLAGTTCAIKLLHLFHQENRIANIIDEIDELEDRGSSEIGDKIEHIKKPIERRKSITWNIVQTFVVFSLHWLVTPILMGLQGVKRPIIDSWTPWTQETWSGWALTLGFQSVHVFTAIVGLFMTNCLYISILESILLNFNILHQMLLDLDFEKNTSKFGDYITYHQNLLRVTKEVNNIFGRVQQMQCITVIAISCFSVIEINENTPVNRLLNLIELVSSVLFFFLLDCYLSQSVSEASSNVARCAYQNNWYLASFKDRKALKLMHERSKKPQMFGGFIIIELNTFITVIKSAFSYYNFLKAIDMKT
T5 sequence (A0A0A0U7J0 1-451 partner): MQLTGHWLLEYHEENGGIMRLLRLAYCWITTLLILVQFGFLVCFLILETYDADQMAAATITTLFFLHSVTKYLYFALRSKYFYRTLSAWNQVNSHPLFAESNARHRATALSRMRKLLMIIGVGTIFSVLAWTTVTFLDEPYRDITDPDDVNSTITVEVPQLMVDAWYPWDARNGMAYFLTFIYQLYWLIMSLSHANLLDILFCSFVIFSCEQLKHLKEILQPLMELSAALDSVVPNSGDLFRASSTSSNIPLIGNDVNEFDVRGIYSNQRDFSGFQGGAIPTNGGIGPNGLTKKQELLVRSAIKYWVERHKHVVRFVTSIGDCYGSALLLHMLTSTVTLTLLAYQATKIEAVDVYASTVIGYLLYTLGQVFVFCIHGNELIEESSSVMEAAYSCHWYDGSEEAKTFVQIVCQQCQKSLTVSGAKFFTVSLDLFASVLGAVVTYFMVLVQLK
The class given is cell-based. To be noted: co-expressed with ORCO; pH 7.6 Ringer's solution; −80 mV; agonist current.

Test [6] deals with T6, OR36.
T6 construct: full-length cDNA from adult antennae in pT7Ts; co-expressed with ORCO in Xenopus oocytes; with Odorant receptor coreceptor
The class given is cell-based, Cimex lectularius. As to conditions: co-expressed with ORCO, pH 7.6 Ringer's solution, −80 mV, agonist current.

For test [7], the system named is T7, OR42.
T7 construct: full-length cDNA from adult antennae in pT7Ts; co-expressed with ORCO in Xenopus oocytes; with Odorant receptor coreceptor
Type of test: cell-based, Cimex lectularius. To be noted: co-expressed with ORCO; pH 7.6 Ringer's solution; −80 mV; agonist current.

The test system of test [8] is T8, OR1.
T8 construct: full-length cDNA from adult antennae in pT7Ts; co-expressed with ORCO in Xenopus oocytes; OR numbering of the bed bug genome annotation (47 ORs), not the earlier group naming in which OR5 was called OR1; with Odorant receptor coreceptor
Type of test: cell-based, Cimex lectularius. As to conditions: co-expressed with ORCO; pH 7.6 Ringer's solution; −80 mV; agonist current.

Test [9] concerns T9, OR47.
T9 construct: full-length cDNA from adult antennae in pT7Ts; co-expressed with ORCO in Xenopus oocytes; with Odorant receptor coreceptor
The class given is cell-based, Cimex lectularius. As to conditions: co-expressed with ORCO; pH 7.6 Ringer's solution; −80 mV; agonist current.

The subject of test [10] is T10, OR5.
T10 construct: full-length cDNA from adult antennae in pT7Ts; co-expressed with ORCO in Xenopus oocytes; called OR1 in the group's previous work; with Odorant receptor coreceptor
Type of test: cell-based, Cimex lectularius. As to conditions: co-expressed with ORCO; pH 7.6 Ringer's solution; −80 mV; agonist current.

For test [11], the system named is T11, OR12.
T11 construct: full-length cDNA from adult antennae in pT7Ts; co-expressed with ORCO in Xenopus oocytes; with Odorant receptor coreceptor
The class given is cell-based, Cimex lectularius. To be noted: co-expressed with ORCO; pH 7.6 Ringer's solution; −80 mV; agonist current.

For test [12], the system named is T12, OR15.
T12 construct: full-length cDNA from adult antennae in pT7Ts; co-expressed with ORCO in Xenopus oocytes; with Odorant receptor coreceptor
Type of test: cell-based, Cimex lectularius. As to conditions: co-expressed with ORCO; pH 7.6 Ringer's solution; −80 mV; agonist current.

As for `C=CC(O)CCCCC` (centres unmarked) [1-octen-3-ol], in test [1], the EC50 is reported as 6.95 × 10^−6 v/v dilution.
Turning to `CC1=CC[C@@H]2[C@H](C1)C2(C)C` [1s-(+)-3-carene], the EC50 in test [1] is reported as 6.85 × 10^−6 v/v dilution.
Regarding `CCCCCCCCC(C)O` (centres unmarked) [2-decanol], the EC50 in test [2] is 7.55 × 10^−6 v/v dilution.
Take `CCCCC(C)=O` [2-hexanone]: the EC50 in test [3] is listed as 1.33 × 10^−6 v/v dilution.
On to `CCCC(C)=O` [2-pentanone], for which the EC50 in test [3] was 4.13 × 10^−6 v/v dilution.
Regarding `CC(C)[C@H]1CC[C@H](C)CC1=O` [(+)-menthone], the EC50 in test [4] is reported as 3.46 × 10^−5 v/v dilution; in [5] it was 1.93 × 10^−7 v/v dilution; in test [6] (b26 prints 9.67 × 10^−8 for the same pair), 9.92 × 10^−8 v/v dilution.
As for `CC1=CC[C@@H]2C[C@H]1C2(C)C` [(+)-α-pinene], in test [7], the EC50 is on record as 1.32 × 10^−5 v/v dilution.
Take `CC(C)[C@@H]1CC[C@@H](C)CC1=O` [(−)-menthone]: in [6], the EC50 was 1.64 × 10^−7 v/v dilution.
For `CC12CCC(CC1=O)C2(C)C` (centres unmarked) [camphor], in test [8], the EC50 is recorded as 1.94 × 10^−5 v/v dilution.
Turning to `CC(C)=CCCC(C)=CC=O` [citral], in [5], the EC50 was 3.32 × 10^−8 v/v dilution.
In the case of `O=c1ccc2ccccc2o1` [coumarin], the EC50 is on record as 2 × 10^−5 v/v dilution in test [9] and 1.45 × 10^−5 v/v dilution in test [7].
Turning to `CCCCCCCCCC=O` [decanal], the results for the EC50 in [2] and in test [10] were 4.27 × 10^−6 v/v dilution and 1.53 × 10^−6 v/v dilution, respectively.
Consider `CC12CCC(CC1)C(C)(C)O2` [eucalyptol], for which, in test [8], the EC50 was 1.88 × 10^−5 v/v dilution.
On to `CCCCCCCCC=O` [nonanal], for which the EC50 in test [10] is given as 1.32 × 10^−7 v/v dilution.
On to `CCCCC/C=C/CO` [trans-2-octen-1-ol], for which, in test [11], the EC50 is on record as 1.03 × 10^−4 v/v dilution.
Consider `C=C1CC/C=C(\C)CC[C@@H]2[C@@H]1CC2(C)C` [β-caryophyllene], for which, in [12], the EC50 is 6.46 × 10^−6 v/v dilution.

These data come from paper PMC5382537, “Molecular Basis of Olfactory Chemoreception in the Common Bed Bug, Cimex lectularius” (Scientific Reports, 2017).
